From ChEMBL document CHEMBL1287761, “The novel benzopyran class of selective cyclooxygenase-2 inhibitors-part I: the first clinical candidate” (Bioorg Med Chem Lett, 2010)

Assays:
[1] = Half life in rat; type: ADME, organism-based; settings: in vivo
Rattus norvegicus [2] = assay: Analgesic activity against carrageenan-induced thermal hyperalgesia in Sprague-Dawley rat assessed as paw withdrawal latency administered 1 to 3 hrs after carrageenan challenge; type: functional
[3] = Half life in dog; type: ADME, organism-based, Canis lupus familiaris; settings: in vivo
Rattus norvegicus [4] = species on record: Rattus norvegicus; assay: Antiinflammatory effect in complete Freund's adjuvant-induced Lewis rat arthritis model assessed as reduction in paw swelling by volume displacement plethysmometry; type: functional
Rattus norvegicus [5] = assay: Antiinflammatory activity against carrageenan-induced paw edema in Sprague-Dawley rat administered 1 to 3 hrs after carrageenan challenge; type: functional
Rattus norvegicus [6] = assay: Antiinflammatory activity against carrageenan-induced inflammation in Sprague-Dawley rat air pouch model assessed as reduction in PGE2 level administered 3 hrs after carrageenan challenge; type: functional
[7] = biological target: Prostaglandin G/H synthase 1 (Homo sapiens, UniProt P23219); assay: Inhibition of human COX-1
[8] = biological target: COX-1/COX-2 (Homo sapiens) (UniProt P35354+P23219); assay: Selectivity ratio of IC50 for human COX-1 to IC50 for human COX-2
[9] = biological target: T1, Prostaglandin G/H synthase 2 (Homo sapiens, UniProt P35354); assay: Inhibition of human COX-2
T1 sequence (P35354 whole entry): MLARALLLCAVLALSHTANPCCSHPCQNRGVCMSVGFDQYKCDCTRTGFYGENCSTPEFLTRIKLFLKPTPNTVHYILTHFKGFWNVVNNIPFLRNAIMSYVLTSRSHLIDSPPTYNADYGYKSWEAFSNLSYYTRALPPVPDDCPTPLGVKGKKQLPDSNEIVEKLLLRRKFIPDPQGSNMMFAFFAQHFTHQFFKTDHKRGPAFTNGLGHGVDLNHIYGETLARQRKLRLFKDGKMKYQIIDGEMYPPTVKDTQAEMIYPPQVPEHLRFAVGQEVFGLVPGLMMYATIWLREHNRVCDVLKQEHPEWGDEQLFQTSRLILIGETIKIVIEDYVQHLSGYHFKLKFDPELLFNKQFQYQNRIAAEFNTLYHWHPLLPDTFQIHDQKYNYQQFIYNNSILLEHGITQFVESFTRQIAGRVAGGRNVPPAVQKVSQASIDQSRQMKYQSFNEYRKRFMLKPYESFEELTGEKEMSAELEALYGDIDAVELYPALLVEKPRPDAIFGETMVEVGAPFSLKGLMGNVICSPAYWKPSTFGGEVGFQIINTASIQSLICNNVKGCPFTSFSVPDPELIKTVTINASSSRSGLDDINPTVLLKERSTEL

Sequence of Prostaglandin G/H synthase 1 (P23219 whole entry): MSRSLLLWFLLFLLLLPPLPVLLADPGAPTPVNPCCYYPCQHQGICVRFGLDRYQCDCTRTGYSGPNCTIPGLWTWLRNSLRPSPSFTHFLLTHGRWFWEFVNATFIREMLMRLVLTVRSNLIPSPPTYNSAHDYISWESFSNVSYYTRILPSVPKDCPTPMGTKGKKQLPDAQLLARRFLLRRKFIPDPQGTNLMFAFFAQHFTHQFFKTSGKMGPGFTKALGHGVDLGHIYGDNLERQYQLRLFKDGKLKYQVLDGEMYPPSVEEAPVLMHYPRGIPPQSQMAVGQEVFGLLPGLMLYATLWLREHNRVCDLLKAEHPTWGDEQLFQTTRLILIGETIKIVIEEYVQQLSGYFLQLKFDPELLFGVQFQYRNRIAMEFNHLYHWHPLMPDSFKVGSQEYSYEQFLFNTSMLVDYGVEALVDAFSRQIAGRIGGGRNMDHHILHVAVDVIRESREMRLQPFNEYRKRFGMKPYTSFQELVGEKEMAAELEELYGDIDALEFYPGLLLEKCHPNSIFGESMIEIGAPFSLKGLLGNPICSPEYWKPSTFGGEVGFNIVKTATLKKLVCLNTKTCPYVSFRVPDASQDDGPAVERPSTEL
Sequence of COX-1/COX-2 (Homo sapiens) (P23219 whole entry, looked up, one chain of several): as the sequence (P23219 whole entry) above

| IC50 [7] [nM] | Ratio IC50 [8] | IC50 [9] [nM] | SMILES | further results |
| --- | --- | --- | --- | --- |
|  |  |  | O=C(O)C1=Cc2cc(Cl)cc(Cl)c2O[C@@H]1C(F)(F)F | half-life [1]: 10.1 h; ED50 (Rattus norvegicus [2]): 2.6 mg/kg; half-life [3]: 20.4 h; ED50 (Rattus norvegicus [4]): 0.03 mg/kg; ED50 (Rattus norvegicus [5]): 7.1 mg/kg; ED50 (Rattus norvegicus [6]; Rattus norvegicus, Sprague-Dawley, 3 h): 0.54 mg/kg |
| 94500 | 1520 | 62 | O=C(O)C1=Cc2cc(Cl)c(Cl)cc2OC1C(F)(F)F (stereo not drawn) |  |
| 145000 | 12 | 12000 | O=C(O)C1=Cc2c(Cl)cc(Cl)cc2OC1C(F)(F)F (stereo not drawn) |  |
| 300000 | 1 | 300000 | O=C(O)C1=Cc2ccc(Cl)c(Cl)c2OC1C(F)(F)F (stereo not drawn) |  |
| 140 |  | 18 | C=Cc1cc(Cl)cc2c1OC(C(F)(F)F)C(C(=O)O)=C2 (stereo not drawn) |  |
| 880 | 136 | 6 | O=C(O)C1=Cc2c(cc(Cl)c(Cl)c2Cl)OC1C(F)(F)F (stereo not drawn) |  |
| 1740 |  | 760 | NS(=O)(=O)c1ccc(-c2cc(Cl)cc3c2OC(C(F)(F)F)C(C(=O)O)=C3)cc1 (stereo not drawn) |  |
| 29200 | 90 | 320 | O=C(O)C1=Cc2cc(Cl)ccc2OC1C(F)(F)F (stereo not drawn) | ED50 (Rattus norvegicus [2]): 6 mg/kg; ED50 (Rattus norvegicus [4]): 0.4 mg/kg; inhibition (INH) (Rattus norvegicus [6]): 98% |
| < 350 |  | 43 | C#Cc1cc(Cl)cc2c1OC(C(F)(F)F)C(C(=O)O)=C2 (stereo not drawn) |  |
| 33000 |  | 140 | O=C(O)C1=Cc2cc(Cl)cc(C#Cc3ccccc3)c2OC1C(F)(F)F (stereo not drawn) |  |
| 2700 | 63 | 43 | O=C(O)C1=Cc2cc(Cl)c(Cl)c(Cl)c2OC1C(F)(F)F (stereo not drawn) |  |
| 11000 | 110 | 100 | O=C(O)C1=Cc2c(Cl)ccc(Cl)c2OC1C(F)(F)F (stereo not drawn) |  |
|  |  |  | Cc1ccc(-c2cc(C(F)(F)F)nn2-c2ccc(S(N)(=O)=O)cc2)cc1 [CELECOXIB] | ED50 (Rattus norvegicus [2]): 35 mg/kg; ED50 (Rattus norvegicus [4]): 0.3 mg/kg; inhibition (INH) (Rattus norvegicus [6]): 94% |
| 3110 |  | 110 | O=C(O)C1=Cc2cc(Cl)cc(-c3ccccc3)c2OC1C(F)(F)F (stereo not drawn) |  |
